This series can be described thus: solvent given as SMILES.

`C(=C\c1c2ccccc2cc2ccccc12)/c1ccccc1`: the fluorescence lifetime worked out at 3.6 ns (in CC1CCCCC1) and 4.2 ns (in CC#N).

`CCC1(CC)c2cc(B(c3c(C)cc(C)cc3C)c3c(C)cc(C)cc3C)ccc2-c2c1c1c(c3c2C(CC)(CC)c2cc(N(c4ccccc4)c4ccccc4)ccc2-3)C(CC)(CC)c2cc(B(c3c(C)cc(C)cc3C)c3c(C)cc(C)cc3C)ccc2-1` had a fluorescence lifetime (in C1CCOC1) of 18.1 ns.

`N#Cc1ccc(N)cc1`: the fluorescence lifetime runs as follows: (in C1CCCCC1) 5.6 ns; (in CC#N) 2.6 ns; (in CCCCCC) 3.2 ns; (in CCO) 0.68 ns; (in O) 0.067 ns; (in OCC(F)(F)F) 0.13 ns.

Molecule `C/C=C/c1ccc(OC)cc1` showed a fluorescence lifetime (in CC#N) of 8.7 ns and a fluorescence lifetime (in CCCCCC) of 7.9 ns.

In turn, `c1ccc(N(c2ccccc2)c2cc3c4c(c2)N(c2ccccc2)c2cc5c(cc2B4c2ccccc2N3c2ccccc2)B2c3ccccc3N(c3ccccc3)c3cc(N(c4ccccc4)c4ccccc4)cc(c32)N5c2ccccc2)cc1` yielded a fluorescence lifetime (in Cc1ccccc1-c1cccc(Oc2cc3c4c(c2)Oc2cc(-c5ccccc5C)ccc2B4c2ccc(-c4ccccc4C)cc2O3)c1) of 4.1 ns.

Take `c1ccc(-c2oc(-c3ccccc3)c3ccccc23)cc1`: the fluorescence lifetime is 4.72 ns (in CCO), 5.08 ns (in CN(C)C=O) and 5.3 ns (in CS(C)=O).

For `[O-]c1ccccc1/C=N/c1ccccc1/N=C/c1ccccc1[O-]`, the fluorescence lifetime (in C1CCOC1) was 0.0036 ns.

Take `Cc1cc(C)c(B(c2ccc(N(c3ccccc3)c3ccccc3)cc2)c2c(C)cc(C)cc2C)c(C)c1`: for the setting “in Cc1ccccc1”, the fluorescence lifetime is 4 ns.

In the case of `COc1ccc2c(c1)N(c1ccccc1-c1ccccc1)c1cc3c(cc1=N2)Oc1c(cc(C(C)(C)C)cc1C(C)(C)C)N=3`, the fluorescence lifetime (in CCCCCC) is 0.45 ns.

With `C=Cc1cc2ccc(OC(=O)c3ccccc3)cc2oc1=O`, where the note is “in CC#N”, the fluorescence lifetime was 3.28 ns.

In turn, `CC(C)(C)c1ccc2c(c1)c1cc(C(C)(C)C)ccc1n2-c1ccc(C#Cc2ccc(C#Cc3ccc(C=C(C#N)C#N)cc3)cc2)cc1` returned a fluorescence lifetime (in ClCCl) of 3.7 ns.

`CC(C)(C)NC(=O)c1ccc(-c2cc3ccccc3s2)c2ccc3c4ccccc4c4ccccc4c3c12` had a fluorescence lifetime (in ClCCl) of 0.69 ns.

`C[Si](C)(C)C#CC1=CC2=c3cc(C#C[Si](C)(C)C)c4nc(C(F)(F)C(F)(F)C(F)(F)F)nc5c(C#C[Si](C)(C)C)cc(c3c54)C3=CC(C#C[Si](C)(C)C)=C4N=C(C(F)(F)C(F)(F)C(F)(F)F)N=C1C4C32` (stereo not given) displayed a fluorescence lifetime (in C1CCOC1) of 2.1 ns.

Take `Fc1nc(F)c(F)c(C#Cc2ccccc2C#Cc2c(F)c(F)nc(F)c2F)c1F`: the fluorescence lifetime (in CC#N) amounted to 1.81 ns.

The molecule `CCCCCCOc1ccc(N(c2ccc(OCCCCCC)cc2)c2ccc(-c3sc(-c4ccc(N(c5ccc(OCCCCCC)cc5)c5ccc(OCCCCCC)cc5)cc4)c4nc(-c5ccc(OC)cc5)c(-c5ccc(OC)cc5)nc34)cc2)cc1` returned a fluorescence lifetime (in CN(C)C=O) of 0.57 ns.

Molecule `COc1ccc(-c2cnc3nn4ccccc4c3c2)cc1` registered a fluorescence lifetime (in C1CCOC1) of 4.8 ns.

For the molecule `Cc1cc(-c2ccc(-c3ccccc3)cc2)nc(-c2ccc(-n3c4ccccc4c4ccccc43)cc2)n1`, the fluorescence lifetime worked out at 3.36 ns (in C1CCOC1), 12.2 ns (in CN(C)C=O), 1.15 ns (in Cc1ccccc1) and 3.19 ns (in ClC(Cl)Cl).

With `c1ccc(-c2nc(-c3ccccc3)nc(-c3cc(-n4c5ccccc5c5ncccc54)cc(-n4c5ccccc5c5ncccc54)c3)n2)cc1`, for the setting “in O=P(c1ccccc1)(c1ccccc1)c1ccc2oc3ccc(P(=O)(c4ccccc4)c4ccccc4)cc3c2c1”, the fluorescence lifetime was 6.6 ns.

Molecule `C[Si](C)(C)c1cc2c(cc3ccc4cccc5ccc2c3c45)[nH]1` came in with a fluorescence lifetime (in CCOC(C)=O) of 2.41 ns.

As for `N#CC1=c2cc3c4c(c2Oc2c1cc1c5c2CCCN5CCC1)CCC[N+]=4CCC3`, the fluorescence lifetime (in CCO) is 1.93 ns.

On to `Cc1ccc2nc3c(=O)n(C)c(=O)nc-3n(C)c2c1`, for which the fluorescence lifetime (in CC#N) is 4.9 ns.

With `CCCCCCCCCCn1nnc(-c2ccc(C#Cc3ccc(C#Cc4ccc(-c5nnn(CCCCCCCCCC)n5)cc4)c4nc5c6ccccc6c6ccccc6c5nc34)cc2)n1`, the fluorescence lifetime is 3.66 ns (in C1CCOC1), 2.52 ns (in Cc1ccccc1) and 4.8 ns (in ClCCl).

As for `CCN(CC)c1ccc2cc3ccc(=[N+](CC)CC)cc-3oc2c1`, the fluorescence lifetime was found to be 4.18 ns (in CC#N), 3.89 ns (in CCO), 3.87 ns (in CN(C)C=O) and 4.07 ns (in O).

Turning to `Cc1ccccc1[B-]1(c2ccccc2C)n2nc(C(F)(F)F)cc2-c2c3ccccc3cc[n+]21`, the fluorescence lifetime is, setting by setting: (in C1CCCCC1) 0.525 ns; (in Cc1ccccc1) 0.425 ns; (in ClCCl) 0.938 ns.

For the molecule `O=C(O)c1ccc2ccc3cccc4ccc1c2c34`, the fluorescence lifetime reads like this: (in C1CCOC1) 10.6 ns; (in CC#N) 9 ns; (in CCCCCC) 8.68 ns; (in CCO) 7.78 ns; (in CN(C)C=O) 8.43 ns; (in CO) 15.5 ns. Moreover, the fluorescence lifetime was 7.14 ns (in Cc1ccccc1) and 5.12 ns (in ClCCl).

`c1cc2c3c(cccc3c1)C(N1CCOCCNCCOCCOCC1)=N2` had a fluorescence lifetime (in CC#N) of 0.52 ns.

For the molecule `CCC1=C(C)C2=C(c3cc(C(=O)Cl)cc(C4=C5C(C)=C(CC)C(C)=[N+]5[B-](F)(F)n5c(C)c(CC)c(C)c54)c3)c3c(C)c(CC)c(C)n3[B-](F)(F)[N+]2=C1C`, the fluorescence lifetime (in CN(C)C=O) amounted to 4.1 ns.

Regarding `Nc1nc2c([nH]c(=O)n2[C@H]2C[C@H](O)[C@@H](CO)O2)c(=O)[nH]1`, the fluorescence lifetime (in O) was 0.0008 ns.

For `CCC12C(=C3C(=C4c5ccc(-c6ccc(C(C)=O)s6)cc5S(=O)(=O)C41CC)C(F)(F)C(F)(F)C3(F)F)c1ccc(-c3ccc(C(C)=O)s3)cc1S2(=O)=O` (stereo not given), the fluorescence lifetime (in C1COCCO1) is 1.9 ns.

As for `CCOC(=O)CN1C(=O)C2=C(c3ccccc3)N(CC(=O)OCC)C(=O)C2=C1c1ccccc1`, the fluorescence lifetime is, setting by setting: (in CC#N) 6.7 ns; (in CS(C)=O) 7.34 ns; (in Cc1ccccc1) 5.93 ns.

As for `O=c1cccc2n1C[C@@H]1CNC[C@H]2C1`, for the setting “in CC#N”, the fluorescence lifetime stood at 0.289 ns.

Turning to `N#Cc1cccc(N)c1`, the fluorescence lifetime came to 2.4 ns (in C1CCCCC1); 5.1 ns (in CC#N); 1.9 ns (in CCCCCC); 6.2 ns (in CCO); 0.045 ns (in O); 0.11 ns (in OCC(F)(F)F).

In the case of `Cc1ccc2cc(C)ccc2c1`, the fluorescence lifetime (in C1CCCCC1) was found to be 64 ns.

On to `CC[n+]1c(C=C2C(=O)C(C=C3N(C)c4ccc(Cl)cc4C3(C)C)=C2[O-])[se]c2ccccc21`, for which the fluorescence lifetime by setting is: (in CO) 0.43 ns; (in ClC(Cl)Cl) 2.14 ns.

`CC(C)(C)c1ccc2c(c1)c1cc(C(C)(C)C)ccc1n2-c1cc[n+]2c(c1)-c1ccccc1O[B-]2(F)F` showed a fluorescence lifetime (in O=P(c1ccccc1)(c1ccccc1)c1ccccc1Oc1ccccc1P(=O)(c1ccccc1)c1ccccc1) of 6.3 ns.

Consider `NCCc1c[nH]c2ccc(O)cc12`, for which the fluorescence lifetime is, setting by setting: (in CC#N) 4.1 ns; (in CC(C)O) 4.28 ns; (in CO) 4.04 ns; (in O) 3.94 ns.

Turning to `CC1(C)c2ccccc2N(c2ccc(-c3n[n+]4c(o3)-c3ccccc3O[B-]4(F)F)cc2)c2ccccc21`, the fluorescence lifetime (in ClCCl) came to 22 ns.

As to `COc1ccc(C(=Cc2ccc(/C=C(\C#N)c3ccccc3)cc2)c2ccc(OC)cc2)cc1`, the fluorescence lifetime (in C1CCOC1) came to 0.5 ns.

Consider `CCC1(CC)c2ccccc2-c2c1c1c(c3c2C(CC)(CC)c2cc(/C=C/c4cccs4)ccc2-3)C(CC)(CC)c2cc(/C=C/c3cccs3)ccc2-1`, for which the fluorescence lifetime (in C1CCOC1) turned out to be 1.5 ns.

On to `CCOC(=O)c1ccccc1-c1c2ccc(=O)cc-2oc2cc(OC(=O)[C@H](CO[Si](C)(C)C(C)(C)C)NC(=O)OC(C)(C)C)ccc12`, for which the fluorescence lifetime stood at 2.3 ns (in C1CCOC1), 2.7 ns (in CC#N), 3.65 ns (in CCO) and 4.03 ns (in CS(C)=O).

`Cc1ccc(/C2=C3N=C(C(c4ccccc4)=C/3c3ccccc3)/C(c3ccc(C)cc3)=c3\[nH]/c(c(-c4ccccc4)c3-c3ccccc3)=C(/c3ccc(C)cc3)C3=N/C(=C(/c4ccc(C)cc4)c4[nH]c2c(-c2ccccc2)c4-c2ccccc2)C(c2ccccc2)=C3c2ccccc2)cc1`: the fluorescence lifetime (in ClCCl) came to 0.472 ns.

On to `CC[n+]1c(C=C2C(=O)C(C=C3N(C)c4ccc(Cl)cc4C3(C)C)=C2[O-])sc2ccccc21`, for which the fluorescence lifetime was 0.26 ns (in CO) and 1.65 ns (in ClC(Cl)Cl).

With `Cc1c(OCC(=O)O)cc2c3c([nH]c2c1C)C(=O)CCC3`, the fluorescence lifetime stood at 0.54 ns (in C1COCCO1); 0.97 ns (in CC#N); 1.52 ns (in CCO); 2.34 ns (in CS(C)=O); 0.52 ns (in Cc1ccccc1); 1.77 ns (in O).

On to `O=P1(c2ccccc2)C(c2cc(C(F)(F)F)cc(C(F)(F)F)c2)=Cc2c3ccc4cccc5ccc(c6cc(-c7ccccc7)n1c26)c3c45` (stereo not given), for which the fluorescence lifetime runs as follows: (in C1CCCCC1) 1.9 ns; (in C1CCOC1) 3.1 ns; (in C1COCCO1) 2.6 ns; (in CC#N) 3.7 ns; (in CC(C)=O) 3.6 ns; (in CO) 3.8 ns. For the same molecule, the fluorescence lifetime is, setting by setting: (in Cc1ccccc1) 2.5 ns; (in ClC(Cl)Cl) 2.4 ns; (in ClCCl) 2.9 ns.

`O=c1oc2ccccc2cc1-c1nc2ccccc2o1` came in with a fluorescence lifetime (in CO) of 3.47 ns, a fluorescence lifetime (in ClC(Cl)(Cl)Cl) of 3.17 ns and a fluorescence lifetime (in OCCO) of 3.78 ns.

For the molecule `COc1ccc(C2=c3sc(-c4ccc(OC)cc4)cc3=[N+]3C2=Nc2c(-c4ccc(OC)cc4)c4sc(-c5ccc(OC)cc5)cc4n2[B-]3(F)F)cc1`, the fluorescence lifetime (in ClC(Cl)Cl) is 1.69 ns.

The molecule `COc1ccc(-c2cc(-c3ccc(N(C)C)cc3)nc(-c3ccccc3)n2)cc1` displayed a fluorescence lifetime (in ClC(Cl)Cl) of 7.1 ns.

The molecule `O=C1c2cc(-c3ccccc3)ccc2-c2ccc(-c3ccccc3)cc21` gave a fluorescence lifetime (in C1CCOC1) of 1 ns.

`CCCCCCCCn1c(=O)c2cc3c(C#Cc4ccc(N(c5ccccc5)c5ccccc5)cc4)c4cc5c(=O)n(CCCCCCCC)c(=O)c5cc4c(C#Cc4ccc(N(c5ccccc5)c5ccccc5)cc4)c3cc2c1=O` came in with a fluorescence lifetime (in ClC(Cl)Cl) of 3.4 ns.

Values taken from the Deep4Chem optical property database.
